Test results from patent publication US9510598B2, “Nitrogen-containing heterocyclic compounds for plant disease control” (BAYER CROPSCIENCE AG, priority 2012, dated 2016).
Like-named read-outs stand apart in the source and are kept apart here.

Type: physicochemical
Details: for chromatographic logP: pH 2.7
[1] = HPLC on reversed phase columns, method [a]: pH 2.7, 0.1% formic acid in water / acetonitrile, linear gradient 10% to 95% acetonitrile
[2] = HPLC on reversed phase columns, method [a]: pH 2.7, 0.1% formic acid in water and acetonitrile, linear gradient 10% to 95% acetonitrile
[3] = method [a]: HPLC/LC-MS on reversed phase at pH 2.7, 0.1% formic acid in water / acetonitrile, linear gradient 10% to 95% acetonitrile
[4] = method [a]: HPLC/LC-MS on reversed phase at pH 2.7, 0.1% formic acid in water / acetonitrile, gradient 10% to 95% acetonitrile

SMILES	log P [1]	log P [2]	also measured
CCOCCCNC(=O)C1(C(C)=O)CC(c2ccc3ncc(Br)cc3c2)=NO1 (stereo not shown) [compound 582]	2.90[a]		
COC1(C(=O)Nc2cccc(CON=C(c3ccccc3)c3noc(=O)n3C)n2)CC(c2ccc3ncc(Br)cc3c2)=NO1 (stereo not shown) [compound 711]		4.39[a]	
C#CC1(NC(=O)C2(C)CC(c3ccc4ncc(Br)cc4c3)=NO2)CC1 (stereo not shown) [compound 718]		2.64[a]	
CC(C)NC(=O)C1(C(C)C)CC(c2ccc3ncc(Br)cc3c2)=NO1 (stereo not shown) [compound 62]			log P [3]: 3.51^[a]
C#Cc1cnc2ccc(C3=NOC(C)(C(=O)NCc4cc(OC)ccn4)C3)cc2c1 (stereo not shown) [compound 677]	1.34[a]		
CCn1cc(CNC(=O)C2(C)CC(c3ccc4ncc(N)cc4c3)=NO2)c(C)n1 (racemic) [compound 452]			log P [4]: 1.12[a]
C#Cc1cnc2ccc(C3=NOC(C)(C(=O)N(Cc4cc(F)cc5c4C(C)(C)CCC5)C4CC4)C3)cc2c1 (racemic) [compound 816]		5.54[a]	
CC(C)NC(=O)C1(C)CC(c2ccc3ncc(NC(=O)OC(C)(C)C)cc3c2)=NO1 (racemic) [compound 430]			log P [4]: 2.77[a]
CC1(CNC(=O)C2(C)CC(c3ccc4ncc(Br)cc4c3)=NO2)CCC1 (stereo not shown) [compound 757]		3.65[a]	
CC(C)NC(=O)C1(C)CC(c2ccc3ncc([S+](C)[O-])cc3c2)=NO1 (stereo not shown) [compound 77]			log P [3]: 1.49^[a]
CC1(C(=O)NC2=NCCO2)CC(c2ccc3ncc(Br)cc3c2)=NO1 (stereo not shown) [compound 495]			log P [4]: 1.71[a]
C#Cc1cnc2c(C)cc(C3=NOC(OC)(C(=O)NCC4COC(C)(C)O4)C3)cc2c1 (stereo not shown) [compound 605]	2.92[a]		
CCCCC1(C(=O)NCc2cn(CC)nc2C)CC(c2ccc3ncc(Br)cc3c2)=NO1 (stereo not shown) [compound 72]			log P [3]: 3.37^[a]
C#Cc1cnc2ccc(C3=NOC(C)(C(=O)N4CCOCC4)C3)cc2c1 (stereo not shown) [compound 774]		2.18[a]	
C#CCOc1coc(CNC(=O)C2(C)CC(c3ccc4ncc(Br)cc4c3)=NO2)cc1=O (stereo not shown) [compound 251]	2.2^[a]		
CC1(C(=O)N/C(=N/O)C2CC2)CC(c2ccc3ncc(Br)cc3c2)=NO1 (stereo not shown) [compound 740]		2.35[a]	
C=C(C)C1(C(=O)NCCCOCC)CC(c2ccc3ncc(Br)cc3c2)=NO1 (stereo not shown) [compound 518]	3.37[a]		
CN1C(=O)CCC1CNC(=O)C1(C)CC(c2ccc3ncc(Br)cc3c2)=NO1 (stereo not shown) [compound 124]			log P [3]: 1.85^[a]
C#Cc1cnc2ccc(C3=NOC(C)(C(=O)NC4CC(F)(F)C4)C3)cc2c1 (stereo not shown) [compound 776]		2.57[a]	
COC1(C(=O)NC(C)C)CC(c2cc(C)c3ncc(Br)cc3c2)=NO1 (stereo not shown) [compound 608]	3.37[a]		
C#Cc1cnc2ccc(C3=NOC(C)(C(=O)NCc4ccnc(O)c4)C3)cc2c1 (stereo not shown) [compound 758]		1.54[a]	
CC1(C(=O)NCCC2CC2)CC(c2ccc3ncc(Br)cc3c2)=NO1 (stereo not shown) [compound 710]		3.17[a]	
C#Cc1cnc2ccc(C3=NOC(C)(C(=O)NC4CCN(C)CC4)C3)cc2c1 (stereo not shown) [compound 598]	1.17[a]		
C#Cc1cnc2ccc(C3=NOC(C)(C(=O)NC(C)CCC(C)C)C3)cc2c1 (racemic) [compound 369]			log P [4]: 3.73[a]
C#Cc1cnc2c(Cl)cc(C3=NOC(OC)(C(=O)NCc4cn(CCC)nc4C)C3)cc2c1 (stereo not shown) [compound 588]	2.80[a]		
CC1(C(=O)NCCc2ccc(C(F)(F)F)cc2Cl)CC(c2ccc3ncc(Br)cc3c2)=NO1 (stereo not shown) [compound 769]		4.21[a]	
COC(=O)C1(C)CC(c2ccc3ncc(I)cc3c2)=NO1 (stereo not shown) [Compound No. 11-30]			chromatographic logP: 2.71

SMILES	log P [1]	log P [2]	also measured
COC1(C(=O)NCC2COC(C)(C)O2)CC(c2cc(C)c3ncc(Br)cc3c2)=NO1 (stereo not shown) [compound 601]	3.33[a]		
CCCCC1(C(=O)NC(C)C)CC(c2ccc3ncc(Br)cc3c2)=NO1 (stereo not shown) [compound 73]			log P [3]: 4.01^[a]
CCCn1cc(CNC(=O)C2(C(F)(F)F)CC(c3ccc4ncc(Br)cc4c3)=NO2)c(C)n1 (stereo not shown) [compound 107]			log P [3]: 3.33^[a]
C#Cc1cnc2c(C)cc(C3=NOC(C)(C(=O)NC4CCC4)C3)cc2c1 (stereo not shown) [compound 578]	3.25[a]		
C#CC(C)(C)NC(=O)C1(C)CC(c2ccc3ncc(Br)cc3c2)=NO1 (stereo not shown) [compound 624]	3.08[a]		
CC(C)NC(=O)C1(Cc2ccccc2)CC(c2ccc3ncc(Br)cc3c2)=NO1 (stereo not shown) [compound 57]			log P [3]: 3.87^[a]
CCOCCCNC(=O)C12CC1C(c1ccc3ncc(Br)cc3c1)=NO2 (racemic) [compound 401]			log P [4]: 2.84[a]
Cn1c(C(=NOCc2cccc(NC(=O)C3(C)CC(c4ccc5ncc(Br)cc5c4)=NO3)n2)c2ccccc2)noc1=O (stereo not shown) [compound 707]		4.49[a]	
CCn1cc(CNC(=O)C2(C)CC(c3ccc4ncc(NC(=O)OC(C)(C)C)cc4c3)=NO2)c(C)n1 (stereo not shown) [compound 421]			log P [4]: 2.44[a]
CCn1cc(CNC(=S)C2(OC)CC(c3ccc4ncc(Br)cc4c3)=NO2)c(C)n1 (stereo not shown) [compound 478]			log P [4]: 3.15[a]
CCn1cc(CNC(=O)C2(C)CC(c3ccc4nc(C(N)=O)c(I)cc4c3)=NO2)c(C)n1 (stereo not shown) [compound 484]			log P [4]: 1.60[a]
CC1(C(=O)NCc2ccccc2Cl)CC(c2ccc3ncc(Br)cc3c2)=NO1 (stereo not shown) [compound 93]			log P [3]: 3.61^[a]
CC1(C(=O)NC2CCCCC2)CC(c2ccc3ncc(Br)cc3c2)=NO1 (stereo not shown) [compound 239]	3.63^[a]		
CCOCCCNC(=O)C1(C(F)F)CC(c2ccc3ncc(Br)cc3c2)=NO1 (stereo not shown) [Compound No. 623, 3-(3-bromoquinolin-6-yl)-5-(difluoromethyl)-N-(3-ethoxypropyl)-4,5-dihydro-1,2-oxazole-5-carboxamide]			chromatographic logP: 3.06
CCOCCCNC(=O)C1(C(F)(F)F)CC(c2cc3cc(Br)cnc3c(F)c2F)=NO1 (stereo not shown) [compound 16]			Log P (method [a]: HPLC/LC-MS on reversed phase at pH 2.7, 0.1% formic acid in water and acetonitrile, linear gradient 10% to 95% acetonitrile): 3.71^[a]
CC(C)C(C)(C)NC(=O)C1(C)CC(c2ccc3ncc(Br)cc3c2)=NO1 (stereo not shown) [compound 325]	4.19[a]		
CC1(C(=O)NC(C)(C)c2ccon2)CC(c2ccc3ncc(Br)cc3c2)=NO1 (stereo not shown) [compound 494]			log P [4]: 2.86[a]
CCOCCCNC(=O)C1(C2CC2)CC(c2ccc3ncc(Br)cc3c2)=NO1 (stereo not shown) [compound 270]	3.21[a]		
C#Cc1cnc2c(Cl)cc(C3=NOC(OC)(C(=O)NC(C)C)C3)cc2c1 (stereo not shown) [compound 590]	2.84[a]		
C#Cc1cnc2c(Cl)cc(C3=NOC(OC)(C(=O)NC4CCC4)C3)cc2c1 (stereo not shown) [compound 592]	3.02[a]		
C#Cc1cnc2ccc(C3=NOC(OC)(C(=O)NCCC4CC4)C3)cc2c1 (stereo not shown) [compound 719]		2.78[a]	
CN1C(C)(C)CC(NC(=O)C2(C)CC(c3ccc4ncc(Br)cc4c3)=NO2)CC1(C)C (stereo not shown) [compound 240]	1.47^[a]		
CCn1cc(CNC(=O)C23CC2C(c2ccc4ncc(Br)cc4c2)=NO3)c(C)n1 (racemic) [compound 399]			log P [4]: 2.44[a]
CCn1cc(CNC(=O)C2(CC3CC3)CC(c3ccc4ncc(Br)cc4c3)=NO2)c(C)n1 (racemic) [compound 425]			log P [4]: 3.01[a]
CC1(C(=O)NCc2cccc(Cl)c2Cl)CC(c2ccc3ncc(Br)cc3c2)=NO1 (stereo not shown) [compound 174]			log P [3]: 4.01^[a]
CCn1cc(CNC(=O)C2(C)CC(c3ccc4nc(Cl)c(I)cc4c3)=NO2)c(C)n1 (racemic) [compound 432]			log P [4]: 2.94[a]

More lines, main results first:

log P [1]	log P [2]	SMILES	also measured
	2.37[a]	CC1(C(=O)NCc2cncc(F)c2)CC(c2ccc3ncc(Br)cc3c2)=NO1 (stereo not shown) [compound 784]	
2.64[a]		C#Cc1cnc2ccc(C3=NOC(C)(C(=O)NCc4cn(CCCC)nc4C)C3)cc2c1 (stereo not shown) [compound 656]	
	2.53[a]	COc1cncc(CNC(=O)C2(C)CC(c3ccc4ncc(Br)cc4c3)=NO2)n1 (stereo not shown) [compound 794]	
1.40[a]		C#Cc1cnc2ccc(C3=NOC(C)(C(=O)NCc4ccncc4OC)C3)cc2c1 (stereo not shown) [compound 676]	
2.05[a]		C#Cc1cnc2ccc(C3=NOC(C)(C(=O)NCCF)C3)cc2c1 (stereo not shown) [compound 640]	
	2.05[a]	CC(C)c1ccnc(CNC(=O)C2(C)CC(c3ccc4ncc(Br)cc4c3)=NO2)c1 (stereo not shown) [compound 750]	
	1.67[a]	C#Cc1cnc2ccc(C3=NOC(C)(C(=O)NCc4cccc(CC)n4)C3)cc2c1 (stereo not shown) [compound 749]	
	3.48[a]	CCC(C)Oc1cc(CNC(=O)C2(C)CC(c3ccc4ncc(Br)cc4c3)=NO2)ccn1 (stereo not shown) [compound 759]	
2.71[a]		C#Cc1cnc2ccc(C3=NOC(C)(C(=O)NCc4cn(C5CCCC5)nc4C)C3)cc2c1 (stereo not shown) [compound 629]	
2.39[a]		CCSc1cnc2ccc(C3=NOC(C)(C(=O)NCc4cn(CC)nc4C)C3)cc2c1 (stereo not shown) [compound 276]	
	1.27[a]	C#Cc1cnc2ccc(C3=NOC(C)(C(=O)NCc4ccnc(C)c4)C3)cc2c1 (stereo not shown) [compound 685]	
	1.78[a]	COc1cncc(CNC(=O)C2(C)CC(c3ccc4ncc(Br)cc4c3)=NO2)c1 (stereo not shown) [compound 698]	
2.82[a]		COc1ncccc1CNC(=O)C1(C)CC(c2ccc3ncc(Br)cc3c2)=NO1 (stereo not shown) [compound 678]	
1.23[a]		CN(C)CCCNC(=O)C1(C)CC(c2ccc3ncc(Br)cc3c2)=NO1 (stereo not shown) [compound 297]	
	1.40[a]	Cc1cc(CNC(=O)C2(C)CC(c3ccc4ncc(Br)cc4c3)=NO2)ccn1 (stereo not shown) [compound 684]	
	1.54[a]	C#Cc1cnc2ccc(C3=NOC(C)(C(=O)NCc4ccc(O)nc4)C3)cc2c1 (stereo not shown) [compound 806]	
2.51[a]		Cc1cc(C)nc(CNC(=O)C2(C)CC(c3ccc4ncc(Br)cc4c3)=NO2)n1 (stereo not shown) [compound 662]	
1.49[a]		COc1ccnc(CNC(=O)C2(C)CC(c3ccc4ncc(Br)cc4c3)=NO2)c1 (stereo not shown) [compound 664]	
2.20[a]		COc1ccc(CNC(=O)C2(C)CC(c3ccc4ncc(Br)cc4c3)=NO2)nc1 (stereo not shown) [compound 666]	
	3.09[a]	CC(C)Oc1cc(CNC(=O)C2(C)CC(c3ccc4ncc(Br)cc4c3)=NO2)ccn1 (stereo not shown) [compound 763]	
